Values after ≈ are worked out from the molar mass of the structure shown.
Key:
Format in all cases: cell-based
[1] = system: E. coli ATCCBAA-200; test: MIC, CLSI broth microdilution, Test Example 1; details: Escherichia coli, ATCCBAA200; SHV-4 ESBL producing strain; cation-adjusted Mueller Hinton broth containing human apo-transferrin; 5×10^5 cfu/mL; read-out: Minimum Inhibitory Concentration (MIC) E. coli ATCC BAA-200
Procedure: (§1) Measurement of Minimum Inhibitory Concentration (MIC: μg/mL) was conducted according to CLSI (Clinical and Laboratory Standards Institute) method, and the amount of bacteria for inoculation was 5×10^5 cfu/mL, and cation-adjusted Mueller Hinton broth containing human apo-transferrin was used as a test medium, and the experiment was conducted using broth microdilution method. The bacteria used are listed below.

[2] = system: A. baumannii SR27323; test: MIC, CLSI broth microdilution, Test Example 1; details: Acinetobacter baumannii, SR27323; OXA-23, OXA-58 carbapenemase producing strain; cation-adjusted Mueller Hinton broth containing human apo-transferrin; 5×10^5 cfu/mL; read-out: Minimum Inhibitory Concentration (MIC) A. baumannii SR27323
Procedure: as §1

[3] = system: P. aeruginosa SR27060; test: MIC, CLSI broth microdilution, Test Example 1; details: Pseudomonas aeruginosa, SR27060; IMP-1 MBL producing strain (carbapenem resistance strain); cation-adjusted Mueller Hinton broth containing human apo-transferrin; 5×10^5 cfu/mL; read-out: Minimum Inhibitory Concentration (MIC) P. aeruginosa SR27060
Procedure: as §1

[4] = system: P. aeruginosa SR24837; test: MIC, CLSI broth microdilution, Test Example 1; details: Pseudomonas aeruginosa, SR24837; PER-1 ESBL producing strain; cation-adjusted Mueller Hinton broth containing human apo-transferrin; 5×10^5 cfu/mL; read-out: Minimum Inhibitory Concentration (MIC) P. aeruginosa SR24837
Procedure: as §1

[5] = system: E. coli ATCCBAA-199; test: MIC, CLSI broth microdilution, Test Example 1; details: Escherichia coli, ATCCBAA199; SHV-3 ESBL producing strain; cation-adjusted Mueller Hinton broth containing human apo-transferrin; 5×10^5 cfu/mL; read-out: Minimum Inhibitory Concentration (MIC) E. coli ATCC BAA-199
Procedure: as §1

[6] = system: K. pneumoniae ATCCBAA-1705; test: MIC, CLSI broth microdilution, Test Example 1; details: Klebsiella pneumoniae, ATCCBAA1705; KPC-2 carbapenemase producing strain; cation-adjusted Mueller Hinton broth containing human apo-transferrin; 5×10^5 cfu/mL; read-out: Minimum Inhibitory Concentration (MIC) K. pneumoniae ATCCBAA-1705
Procedure: as §1

[7] = system: P. aeruginosa SR24; test: MIC, CLSI broth microdilution, Test Example 1; details: Pseudomonas aeruginosa, SR24; Ceftazidime resistance strain; cation-adjusted Mueller Hinton broth containing human apo-transferrin; 5×10^5 cfu/mL; read-out: Minimum Inhibitory Concentration (MIC) P. aeruginosa SR24
[8] = system: P. aeruginosa SR01332; test: MIC, CLSI broth microdilution, Test Example 2; details: Pseudomonas aeruginosa, SR01332; VIM-11 MBL producing strain (carbapenem resistance strain); cation-adjusted Iso-Sensitest broth containing human Apo-transferrin; 5×10^5 cfu/mL; read-out: Minimum Inhibitory Concentration (MIC) P. aeruginosa SR01332
Procedure: as §1, with “Iso-Sensitest” for “Mueller Hinton”, “Apo-transferrin” for “apo-transferrin”, “method.” for “method. The bacteria used are listed below.”

[9] = system: K. pneumoniae ATCC700603; test: MIC, CLSI broth microdilution, Test Example 2; details: Klebsiella pneumoniae, ATCC700603; SHV18 ESBL producing strain; cation-adjusted Iso-Sensitest broth containing human Apo-transferrin; 5×10^5 cfu/mL; read-out: Minimum Inhibitory Concentration (MIC) K. pneumoniae ATCC 700603
Procedure: as §1, with “Iso-Sensitest” for “Mueller Hinton”, “Apo-transferrin” for “apo-transferrin”, “method.” for “method. The bacteria used are listed below.”

[10] = system: E. coli ATCCBAA-200; test: MIC, CLSI broth microdilution, Test Example 2; details: Escherichia coli, ATCCBAA200; SHV-4 ESBL producing strain; cation-adjusted Iso-Sensitest broth containing human Apo-transferrin; 5×10^5 cfu/mL; read-out: Minimum Inhibitory Concentration (MIC) E. coli ATCC BAA-200
Procedure: as §1, with “Iso-Sensitest” for “Mueller Hinton”, “Apo-transferrin” for “apo-transferrin”, “method.” for “method. The bacteria used are listed below.”

[11] = system: A. baumannii SR01331; test: MIC, CLSI broth microdilution, Test Example 2; details: Acinetobacter baumannii, SR01331; PER-1, OXA-23.51 ESBL- & OXA-type carbapenemase producing strain; cation-adjusted Iso-Sensitest broth containing human Apo-transferrin; 5×10^5 cfu/mL; read-out: Minimum Inhibitory Concentration (MIC) A. baumannii SR01331
Procedure: as §1, with “Iso-Sensitest” for “Mueller Hinton”, “Apo-transferrin” for “apo-transferrin”, “method.” for “method. The bacteria used are listed below.”

[12] = system: E. coli SR01337; test: MIC, CLSI broth microdilution, Test Example 2; details: Escherichia coli, SR01337; TEM-1 ESBL producing strain; cation-adjusted Iso-Sensitest broth containing human Apo-transferrin; 5×10^5 cfu/mL; read-out: Minimum Inhibitory Concentration (MIC) E. coli SR01337
Procedure: as §1, with “Iso-Sensitest” for “Mueller Hinton”, “Apo-transferrin” for “apo-transferrin”, “method.” for “method. The bacteria used are listed below.”

[13] = system: E. cloacae NCTC13464; test: MIC, CLSI broth microdilution, Test Example 2; details: Enterobacter cloacae, NCTC13464; CTX-M group 9 ESBL producing strain; cation-adjusted Iso-Sensitest broth containing human Apo-transferrin; 5×10^5 cfu/mL; read-out: Minimum Inhibitory Concentration (MIC) E. cloacae NCTC 13464
Procedure: as §1, with “Iso-Sensitest” for “Mueller Hinton”, “Apo-transferrin” for “apo-transferrin”, “method.” for “method. The bacteria used are listed below.”

[14] = system: P. aeruginosa SR01335; test: MIC, CLSI broth microdilution, Test Example 2; details: Pseudomonas aeruginosa, SR01335; VIM-1 like MBL producing strain (carbapenem resistance strain); cation-adjusted Iso-Sensitest broth containing human Apo-transferrin; 5×10^5 cfu/mL; read-out: Minimum Inhibitory Concentration (MIC) P. aeruginosa SR01335
Procedure: as §1, with “Iso-Sensitest” for “Mueller Hinton”, “Apo-transferrin” for “apo-transferrin”, “method.” for “method. The bacteria used are listed below.”

[15] = system: E. coli ATCCBAA-196; test: MIC, CLSI broth microdilution, Test Example 2; details: Escherichia coli, ATCCBAA196; TEM-10 ESBL producing strain; cation-adjusted Iso-Sensitest broth containing human Apo-transferrin; 5×10^5 cfu/mL; read-out: Minimum Inhibitory Concentration (MIC) E. coli ATCC BAA-196
Procedure: as §1, with “Iso-Sensitest” for “Mueller Hinton”, “Apo-transferrin” for “apo-transferrin”, “method.” for “method. The bacteria used are listed below.”

SMILES	MIC [1] [µg/mL]	MIC [2] [µg/mL]	MIC [3] [µg/mL]	MIC [4] [µg/mL]	MIC [5] [µg/mL]	MIC [6] [µg/mL]	MIC [7] [µg/mL]	MIC [8] [µg/mL]	MIC [9] [µg/mL]	MIC [10] [µg/mL]	MIC [11] [µg/mL]	MIC [12] [µg/mL]	MIC [13] [µg/mL]	MIC [14] [µg/mL]	MIC [15] [µg/mL]
CC(C)(O/N=C(\C(=O)N[C@@H]1C(=O)N2C(C(=O)[O-])=C(C[N+]34CCC(CNC(=O)c5ccc(O)c(O)c5Cl)(CC3)CC4)CS[C@H]12)c1csc(N)n1)C(=O)[O-].[Na+] [Comparative Compound 1, reference compound]	4	1	4	> 32	2	0.125	0.5	–	–	–	–	–	–	–	–
CC(C)(O/N=C(\C(=O)N[C@@H]1C(=O)N2C(c3nnn[n-]3)=C(C[n+]3ccc(NC(=O)c4ccc(O)c(O)c4Cl)cc3)CS[C@H]12)c1csc(N)n1)C(=O)[O-].[Na+] [Compound I-15]	0.25	≤ 0.031	0.5	≤ 0.031	0.063	≤ 0.031	0.125	–	–	–	–	–	–	–	–
CC(C)(O/N=C(\C(=O)N[C@@H]1C(=O)N2C(c3nnn[n-]3)=C(C[n+]3cccc(NC(=O)c4ccc(O)c(O)c4Cl)c3)CS[C@H]12)c1csc(N)n1)C(=O)[O-].[Na+] [Compound I-73]	0.125	0.25	0.25	0.25	0.063	≤ 0.031	0.125	–	–	–	–	–	–	–	–

Now from value to molecule:

MIC [1] [µg/mL]	MIC [2] [µg/mL]	MIC [3] [µg/mL]	MIC [4] [µg/mL]	MIC [5] [µg/mL]	MIC [6] [µg/mL]	MIC [7] [µg/mL]	MIC [8] [µg/mL]	MIC [9] [µg/mL]	MIC [10] [µg/mL]	MIC [11] [µg/mL]	MIC [12] [µg/mL]	MIC [13] [µg/mL]	MIC [14] [µg/mL]	MIC [15] [µg/mL]	SMILES
0.125 (≈ 0.154 µM)	1 (≈ 1.23 µM)	0.5 (≈ 0.617 µM)	0.063 (≈ 0.0777 µM)	0.063 (≈ 0.0777 µM)	≤ 0.031	0.25 (≈ 0.308 µM)	–	–	–	–	–	–	–	–	CC(C)(O/N=C(\C(=O)N[C@@H]1C(=O)N2C(c3nnn[nH]3)=C(C[N+]3(CCNC(=O)c4cc(Cl)c(O)c(O)c4Cl)CCCC3)CS[C@H]12)c1csc(N)n1)C(=O)[O-] [Compound I-53]
0.125	0.5	0.5	0.5	0.063	≤ 0.031	0.5	–	–	–	–	–	–	–	–	CC(C)(O/N=C(\C(=O)N[C@@H]1C(=O)N2C(c3nnn[n-]3)=C(C[N+]3(CCNC(=O)c4ccc(O)c(O)c4Cl)CCCC3)CS[C@H]12)c1csc(N)n1)C(=O)[O-].[Na+] [Compound I-1]
0.25	1	0.25	1	0.25	≤ 0.031	0.125	–	–	–	–	–	–	–	–	CC(C)(O/N=C(\C(=O)N[C@@H]1C(=O)N2C(c3nnn[n-]3)=C(Cn3cc(NC(=O)c4ccc(O)c(O)c4Cl)[n+]4c3CCCC4)CS[C@H]12)c1csc(N)n1)C(=O)[O-].[Na+] [Compound I-16]
1	2	0.5	2	0.5	≤ 0.031	0.125	–	–	–	–	–	–	–	–	CC(C)(O/N=C(\C(=O)N[C@@H]1C(=O)N2C(c3nnn[n-]3)=C(C[N+]34CCC[C@H]3CN(C(=O)c3cc(O)c(O)c(Cl)c3)CC4)CS[C@H]12)c1csc(N)n1)C(=O)[O-].[Na+] (stereo partly drawn) [Compound I-13]
–	–	–	–	–	–	–	4 (≈ 5.07 µM)	0.125 (≈ 0.158 µM)	0.25 (≈ 0.317 µM)	0.25 (≈ 0.317 µM)	≤ 0.031	0.063 (≈ 0.0798 µM)	1 (≈ 1.27 µM)	0.125 (≈ 0.158 µM)	CC(C)(O/N=C(\C(=O)N[C@@H]1C(=O)N2C(c3nnn[nH]3)=C(C[N+]34CCCC3CN(C(=O)c3cc(O)c(O)c(Cl)c3)CC4)CS[C@H]12)c1nsc(N)n1)C(=O)[O-] (stereo partly drawn) [Compound I-122]
